Measured values as given in PMC7404309, “Regulation of ABA-Non-Activated SNF1-Related Protein Kinase 2 Signaling Pathways by Phosphatidic Acid” (International Journal of Molecular Sciences, 2020).
Counter-ions that a name gives are not always drawn.

How the values were obtained:
ERD10 = biological target: T1, ERD10 (Arabidopsis thaliana, UniProt P42759); experiment: phospholipid blot (lipid overlay); type: binding; details: TBST pH 7.5, 4 °C
T1 construct: GST fusion, E. coli Rosetta, glutathione-Sepharose
T1 sequence (P42759 1-260): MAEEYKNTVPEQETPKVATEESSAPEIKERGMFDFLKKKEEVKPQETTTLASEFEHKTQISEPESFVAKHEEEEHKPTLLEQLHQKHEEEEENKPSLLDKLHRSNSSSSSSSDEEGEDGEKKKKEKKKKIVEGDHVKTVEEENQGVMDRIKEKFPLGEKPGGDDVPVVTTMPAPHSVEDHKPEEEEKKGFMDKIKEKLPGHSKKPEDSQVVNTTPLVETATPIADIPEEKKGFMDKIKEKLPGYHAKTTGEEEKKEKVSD

ABI1 = biological target: T2, ABI1 (Arabidopsis thaliana, UniProt P49597); experiment: ProFluor Ser/Thr PPase fluorescence assay; type: biochemical
T2 construct: GST fusion, E. coli Rosetta, glutathione-Sepharose
T2 sequence (P49597 1-434): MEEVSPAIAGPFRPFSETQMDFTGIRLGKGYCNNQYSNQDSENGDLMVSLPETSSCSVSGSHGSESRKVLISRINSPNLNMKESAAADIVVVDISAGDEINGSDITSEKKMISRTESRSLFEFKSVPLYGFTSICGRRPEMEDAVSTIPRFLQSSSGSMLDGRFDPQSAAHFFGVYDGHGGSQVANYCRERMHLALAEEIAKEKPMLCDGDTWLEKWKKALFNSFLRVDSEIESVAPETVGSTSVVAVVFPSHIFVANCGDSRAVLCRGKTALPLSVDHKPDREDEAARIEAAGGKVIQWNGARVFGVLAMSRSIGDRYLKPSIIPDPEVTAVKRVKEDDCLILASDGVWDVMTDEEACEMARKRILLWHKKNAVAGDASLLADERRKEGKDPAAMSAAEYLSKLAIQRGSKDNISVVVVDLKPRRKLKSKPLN

PP2CA = biological target: T3, PP2CA (Arabidopsis thaliana, UniProt P49598); experiment: ProFluor Ser/Thr PPase fluorescence assay; type: biochemical
T3 construct: GST fusion, E. coli Rosetta, glutathione-Sepharose
T3 sequence (P49598 1-399): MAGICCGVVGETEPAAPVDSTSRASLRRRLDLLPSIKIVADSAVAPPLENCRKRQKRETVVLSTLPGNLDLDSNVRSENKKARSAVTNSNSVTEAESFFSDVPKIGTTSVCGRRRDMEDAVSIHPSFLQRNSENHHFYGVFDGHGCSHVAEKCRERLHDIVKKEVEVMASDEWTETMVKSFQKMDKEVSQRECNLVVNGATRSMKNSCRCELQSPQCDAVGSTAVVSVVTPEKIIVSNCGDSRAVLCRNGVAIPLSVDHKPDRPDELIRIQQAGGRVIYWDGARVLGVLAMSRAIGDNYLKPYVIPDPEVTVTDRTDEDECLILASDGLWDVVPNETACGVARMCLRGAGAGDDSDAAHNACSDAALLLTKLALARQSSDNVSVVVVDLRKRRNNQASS

phospholipid blot (lipid overlay) (ERD10): the two dehydrins bound both PA and PS
inhibition at 50 µM (ABI1): 50 to 60%
inhibition at 50 µM (PP2CA): 50 to 60%
SMILES: CCCCCCCC/C=C\CCCCCCCC(=O)O[C@H](COC(=O)CCCCCCCCCCCCCCC)COP(=O)(O)O [PA 16:0/18:1, 1-palmitoyl-2-oleoyl-sn-glycero-3-phosphate, sodium salt]
